Counter-ions that a name gives are not always drawn.
Tests used:
[1] = tested on: Acinetobacter calcoaceticus CMX 669; experiment: In vitro antibacterial activity, MIC by agar dilution; assay type: cell-based; details: BHI agar, 35-37°C, 20-24 hours, unit assumed
Outline: (§1)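 Using a Steers replicator, about 10^4 CFU of each diluted organism were spotted on agar with test compound. After ~20–24 h at 35–37°C, MIC was taken as the lowest concentration without growth compared with compound-free BHI agar; ciprofloxacin served as reference antibiotic.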

[2] = tested on: Enterobacter aerogenes ATCC 13048; experiment: as above; assay type: cell-based; details: BHI agar, 35-37°C, 20-24 hours, unit assumed
Outline: as §1

[3] = tested on: Enterococcus faecium ATCC 8043; experiment: as above; assay type: cell-based; details: BHI agar, 35-37°C, 20-24 hours, unit assumed
Outline: as §1

[4] = tested on: Escherichia coli DC-2; experiment: as above; assay type: cell-based; details: BHI agar, 35-37°C, 20-24 hours, unit assumed
Outline: as §1

[5] = tested on: Escherichia coli H560; experiment: as above; assay type: cell-based; details: BHI agar, 35-37°C, 20-24 hours, unit assumed
Outline: as §1

[6] = tested on: Escherichia coli JUHL; experiment: as above; assay type: cell-based; details: BHI agar, 35-37°C, 20-24 hours, unit assumed
Outline: as §1

[7] = tested on: Escherichia coli KNK 437; experiment: as above; assay type: cell-based; details: BHI agar, 35-37°C, 20-24 hours, unit assumed
Outline: as §1

[8] = tested on: Escherichia coli SS; experiment: as above; assay type: cell-based; details: BHI agar, 35-37°C, 20-24 hours, unit assumed
Outline: as §1

[9] = tested on: Klebsiella pneumoniae ATCC 8045; experiment: as above; assay type: cell-based; details: BHI agar, 35-37°C, 20-24 hours, unit assumed
Outline: as §1

[10] = tested on: Micrococcus luteus ATCC 4698; experiment: as above; assay type: cell-based; details: BHI agar, 35-37°C, 20-24 hours, unit assumed
Outline: as §1

[11] = tested on: Micrococcus luteus ATCC 9341; experiment: as above; assay type: cell-based; details: BHI agar, 35-37°C, 20-24 hours, unit assumed
Outline: as §1

[12] = tested on: Providencia stuartii CMX 640; experiment: as above; assay type: cell-based; details: BHI agar, 35-37°C, 20-24 hours, unit assumed
Outline: as §1

[13] = tested on: Pseudomonas aeruginosa 2862; experiment: as above; assay type: cell-based; details: BHI agar, 35-37°C, 20-24 hours, unit assumed
Outline: as §1

[14] = tested on: Pseudomonas aeruginosa 5263; experiment: as above; assay type: cell-based; details: BHI agar, 35-37°C, 20-24 hours, unit assumed
Outline: as §1

[15] = tested on: Pseudomonas aeruginosa A5007; experiment: as above; assay type: cell-based; details: BHI agar, 35-37°C, 20-24 hours, unit assumed
Outline: as §1

[16] = tested on: Pseudomonas aeruginosa BMH10; experiment: as above; assay type: cell-based; details: BHI agar, 35-37°C, 20-24 hours, unit assumed
Outline: as §1

[17] = tested on: Pseudomonas aeruginosa K799/61; experiment: as above; assay type: cell-based; details: BHI agar, 35-37°C, 20-24 hours, unit assumed
Outline: as §1

[18] = tested on: Pseudomonas aeruginosa K799/WT; experiment: as above; assay type: cell-based; details: BHI agar, 35-37°C, 20-24 hours, unit assumed
Outline: as §1

[19] = tested on: Pseudomonas cepacia 296I; experiment: as above; assay type: cell-based; details: BHI agar, 35-37°C, 20-24 hours, unit assumed
Outline: as §1

[20] = tested on: Staphylococcus aureus 1775; experiment: as above; assay type: cell-based; details: BHI agar, 35-37°C, 20-24 hours, unit assumed
Outline: as §1

[21] = tested on: Staphylococcus aureus 642A; experiment: as above; assay type: cell-based; details: BHI agar, 35-37°C, 20-24 hours, unit assumed
Outline: as §1

[22] = tested on: Staphylococcus aureus A-5278; experiment: as above; assay type: cell-based; details: BHI agar, 35-37°C, 20-24 hours, unit assumed
Outline: as §1

[23] = tested on: Staphylococcus aureus A5177; experiment: as above; assay type: cell-based; details: BHI agar, 35-37°C, 20-24 hours, unit assumed
Outline: as §1

[24] = tested on: Staphylococcus aureus ATCC 6538P; experiment: as above; assay type: cell-based; details: BHI agar, 35-37°C, 20-24 hours, unit assumed
Outline: as §1

[25] = tested on: Staphylococcus aureus CMX 553; experiment: as above; assay type: cell-based; details: BHI agar, 35-37°C, 20-24 hours, unit assumed
Outline: as §1

[26] = tested on: Staphylococcus aureus NCTC 10649; experiment: as above; assay type: cell-based; details: BHI agar, 35-37°C, 20-24 hours, unit assumed
Outline: as §1

[27] = tested on: Staphylococcus epidermidis 3519; experiment: as above; assay type: cell-based; details: BHI agar, 35-37°C, 20-24 hours, unit assumed
Outline: as §1

[28] = tested on: Streptococcus agalactaciae CMX 508; experiment: as above; assay type: cell-based; details: BHI agar, 35-37°C, 20-24 hours, unit assumed
Outline: as §1

[29] = tested on: Streptococcus bovis A5169; experiment: as above; assay type: cell-based; details: BHI agar, 35-37°C, 20-24 hours, unit assumed
Outline: as §1

[30] = tested on: Streptococcus pyrogenes 2548 INDUC; experiment: as above; assay type: cell-based; details: BHI agar, 35-37°C, 20-24 hours, unit assumed
Outline: as §1

[31] = tested on: Streptococcus pyrogenes CONST; experiment: as above; assay type: cell-based; details: BHI agar, 35-37°C, 20-24 hours, unit assumed
Outline: as §1

[32] = tested on: Streptococcus pyrogenes EES61; experiment: as above; assay type: cell-based; details: BHI agar, 35-37°C, 20-24 hours, unit assumed
Outline: as §1

[33] = tested on: Staphylococcus aureus NCTC 10649; experiment: In vivo antibacterial activity in mice (protection from lethal intraperitoneal infection); details: NCTC10649, 144 h, S. aureus, CF-1 female mice infected intraperitoneally with 100 times the LD50, treated at 1 and 5 hr after infection, cumulative mortalities on the sixth day
Experimental: (§2) The in vivo antibacterial activity of the compounds of the present invention was determined as follows: Aqueous solutions of the test compounds were prepared by dissolving the compound in distilled water, except for the compounds of examples 169 and 170 which were dissolved in a solution of 2% DMSO in distilled water.
(§3) After 18 hr incubation, a culture of Staphylococcus aureus NCTC 10649 was serially diluted by using 10-fold dilutions in 5% (w/v) hog gastric mucin. Cultures (0.5 mL) in a dilution from 10^-1 to 10^-8 were injected intraperitoneally into CF-1 female mice weighing approximately 20g. The LD50 (median lethal dose) for the test organism was calculated from the cumulative mortalities on the sixth day by the using the Reed and Muench procedure (Reed, L.J., and H. Muench, Amer. J. Hygiene, 27, 493 (1938)).
(§4) The above 18 hr culture was diluted in 5% (w/v) hog gastric mucin to obtain 100 times the LD50, and 0.5 mL was injected intraperitoneally into mice. The mice were treated subcutaneously (sc) or orally (po) with a specific amount of the test compound divided equally to be administered at 1 and 5 hr after infection. A group of 10 animals each for at least three dose levels was thus treated, and the deaths were recorded daily for 6 days. Ten mice were left untreated as infection control. ED50 values were calculated from the cumulative mortalities on the sixth day after infection by using the trimmed version of the Logit method ( Hamilton, M.A., R.C. Russo, and R.V. Thurston, Environ. Sci. Technol. 11, 714 (1977)).

[34] = tested on: Escherichia coli JUHL; experiment: as above; details: 144 h, E. coli JUHL, mice infected intraperitoneally, treated at 1 and 5 hr after infection, cumulative mortalities on the sixth day
Experimental: as §2, §3, §4
The LD50 for Escherichia coli JUHL was determined in a manner similar to that above for S. aureus. The 18 hr cultures of this organism were also prepared for po and sc testing in mice, from which ED50 values were calculated. Positive controls were run with temafloxacin as the test compound, for which ED50 values were also calculated.

Row | SMILES | MIC values [1] | MIC values [2] | MIC values [3] | MIC values [4] | MIC values [5] | MIC values [6] | MIC values [7] | MIC values [8] | MIC values [9] | MIC values [10] | MIC values [11] | MIC values [12] | MIC values [13] | MIC values [14] | MIC values [15] | MIC values [16] | ED50 ([33]; po) | ED50 ([33]; sc) | ED50 ([34]; po) | ED50 ([34]; sc) | further results
1 | C[C@H](N)C(=O)N[C@@H](C)C(=O)NC1CCN(c2nc3c(-c4ccc(F)cc4F)cc(C(=O)O)c(=O)n3cc2F)C1 (stereo partly drawn) [Example 168, 2-(3-(N-(S)-Alanyl-(S)-alanyl)aminopyrrolidin-1-yl)-9-(2,4-difluorophenyl)-3-fluoro-6H-6-oxopyrido[1,2-a]pyrimidine-7-carboxylic acid hydrochloride] | 12.5 µg/mL | 3.1 µg/mL | 12.5 µg/mL | 25 µg/mL | 0.78 µg/mL | 0.78 µg/mL | 12.5 µg/mL | 0.05 µg/mL | 3.1 µg/mL | 50 µg/mL | 50 µg/mL | 100 µg/mL | > 100 µg/mL | > 100 µg/mL | 12.5 µg/mL | 3.1 µg/mL | 3 mg/kg | 2.8 mg/kg | 14.3 mg/kg | < 2.5 mg/kg | MIC values [17]: 1.56 µg/mL; MIC values [18]: 6.2 µg/mL; MIC values [19]: > 100 µg/mL; MIC values [20]: > 100 µg/mL; MIC values [21]: 3.1 µg/mL; MIC values [22]: 3.1 µg/mL; MIC values [23]: 3.1 µg/mL; MIC values [24]: 0.78 µg/mL; MIC values [25]: 6.2 µg/mL; MIC values [26]: 0.78 µg/mL; MIC values [27]: 3.1 µg/mL; MIC values [28]: 6.2 µg/mL; MIC values [29]: 12.5 µg/mL; MIC values [30]: 1.56 µg/mL; MIC values [31]: 3.1 µg/mL; MIC values [32]: 6.2 µg/mL
2 | C[C@H]1C[C@H](N)CN1c1nc2c(-c3ccc(F)cc3F)cc(C(=O)O)c(=O)n2cc1F [Example 171, 2-((2S,4S)-4-Amino-2-methylpyrrolidin-1-yl)-9-(2,4-difluorophenyl)-3-fluoro-6H-6-oxopyrido[1,2-a]pyrimidine-7-carboxylic acid hydrochloride] | 0.05 µg/mL | 0.1 µg/mL | 0.78 µg/mL | 0.78 µg/mL | 0.02 µg/mL | 0.02 µg/mL | 0.39 µg/mL | 0.001 µg/mL | 0.01 µg/mL | 0.78 µg/mL | 3.1 µg/mL | 6.2 µg/mL | 50 µg/mL | 50 µg/mL | 0.39 µg/mL | 0.2 µg/mL | 12.8 mg/kg | > 8 mg/kg | > 20 mg/kg | 4.8 mg/kg | MIC values [17]: 0.05 µg/mL; MIC values [18]: 0.39 µg/mL; MIC values [19]: 6.2 µg/mL; MIC values [20]: 50 µg/mL; MIC values [21]: 0.2 µg/mL; MIC values [22]: 0.1 µg/mL; MIC values [23]: 0.1 µg/mL; MIC values [24]: 0.1 µg/mL; MIC values [25]: 0.2 µg/mL; MIC values [26]: 0.1 µg/mL; MIC values [27]: 0.2 µg/mL; MIC values [28]: 0.78 µg/mL; MIC values [29]: 1.56 µg/mL; MIC values [30]: 0.39 µg/mL; MIC values [31]: 0.78 µg/mL; MIC values [32]: 0.78 µg/mL
3 | CC1CN(c2cc3c(cc2F)c(=O)c(C(=O)O)cn3-c2ccc(F)cc2F)CCN1 (stereo not shown) [temafloxacin, reference compound] | – | – | – | – | – | – | – | – | – | – | – | – | – | – | – | – | 1.5 mg/kg | 1.3 mg/kg | 1.5 mg/kg | 0.5 mg/kg | –

From patent publication EP0527889B1, “QUINOLIZINONE TYPE COMPOUNDS” (priority 1990, dated 1991)
